Results as given in article PMC4966929, “Two Distinct Cardiolipin Synthases Operate in Agrobacterium tumefaciens” (PLoS ONE, 2016).

Biological target: T1, Cls2 (Agrobacterium fabrum, UniProt A9CHR9)
T1 construct: gene cls; native full-length enzyme in A. tumefaciens crude extract (wild type and delta-cls1 lysates, assigned by loss in delta-cls2); about 54 kDa, not purified, no tag
T1 sequence (A9CHR9 1-486): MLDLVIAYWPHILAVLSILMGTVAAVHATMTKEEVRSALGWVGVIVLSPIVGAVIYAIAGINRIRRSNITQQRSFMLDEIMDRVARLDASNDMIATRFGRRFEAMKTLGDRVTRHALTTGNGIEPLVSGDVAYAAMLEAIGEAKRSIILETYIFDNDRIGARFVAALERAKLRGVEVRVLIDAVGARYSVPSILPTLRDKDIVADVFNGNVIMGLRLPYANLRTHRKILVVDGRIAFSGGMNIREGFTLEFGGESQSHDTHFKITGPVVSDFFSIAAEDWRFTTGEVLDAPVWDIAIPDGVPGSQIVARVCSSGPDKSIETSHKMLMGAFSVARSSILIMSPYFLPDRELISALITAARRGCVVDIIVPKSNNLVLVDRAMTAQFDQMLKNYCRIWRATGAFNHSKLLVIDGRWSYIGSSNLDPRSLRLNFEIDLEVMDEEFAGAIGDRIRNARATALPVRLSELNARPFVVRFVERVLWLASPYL
Experiment: CL formation in crude extract of wild type and cls deletion strains, lipid extraction, 1D-TLC
Format: biochemical
Conditions: 0.4 mM lipid in micellar form, 0.02% Triton X-100, 50 mM Tris/HCl, 50 mM NaCl, pH 8, 30 C, 12 h; 300 ug total protein

SMILES: CCCCCCCC/C=C\CCCCCCCC(=O)OC[C@H](COP(=O)(O)OCC(O)CO)OC(=O)CCCCCCC/C=C\CCCCCCCC (mixture of isomers) [PG, 1,2-dioleoyl-sn-glycero-3-phospho-rac-(1-glycerol)]
- CL formation in crude extract of wild type and cls deletion strains, lipid extra: suggesting that PG-dependent CL accumulation is mediated by Cls2
